Results taken from US20120258174A1, “Methods for Treating Bacterial Infection” (Innocoll Technologies Limited, priority 2011, published 2012).

System: organisms isolated from the infected wounds at baseline
Assay: Gentamicin MIC testing against all isolated pathogens up to 1024 μg/mL
Format: cell-based
Details: 87 of 95 organisms isolated at baseline
Experimental: Minimum inhibitory concentration (MIC) testing was performed on all isolated pathogens to determine susceptibility to systemic concentrations of levofloxacin, linezolid, vancomycin and oxacillin for gram-positive species and levofloxacin, aztreonam and piperacillin/tazobactam for gram-negative species. Definitive gentamicin MIC testing against all isolated pathogens up to 1024 μg/mL to mimic high local concentrations were also performed.

CN[C@@H]1[C@@H](O)C(O[C@@H]2[C@@H](O)[C@H](O[C@H]3O[C@H]([C@@H](C)NC)CC[C@H]3N)[C@@H](N)C[C@H]2N)OC[C@]1(C)O (stereo partly drawn) [gentamicin, (3R,4R,5R)-2-{[(1S,2S,3R,4S,6R)-4,6-diamino-3-{[(2R,3R,6S)-3-amino-6-[(1R)-1-(methylamino)ethyl]oxan-2-yl]oxy}-2-hydroxycyclohexyl]oxy}-5-methyl-4-(methylamino)oxane-3,5-diol]
organisms whose gentamicin MIC would be exceeded by a local concentration of up to 1000 μg/mL: 92%
